What was measured:
[1] = biological target: T1, human α1H T-type channels (Homo sapiens, UniProt O95180); assay: T-type calcium channel block, whole cell patch clamp (α1H); type: cell-based; settings: HEK cells stably expressing human α1H; mainly non-inactivated protocol; values above 10 μM represented as 10 μM
T1 construct: expressed in transfected cells; host or cells: HEK 293
Outline: (§1)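 Resting block was measured mainly with the non-inactivated protocol: holding potential −110 mV, 1 s step to −100 mV, then a 50 ms test pulse at −40 mV. Recordings used stably transfected human α1G or α1H HEK293 lines, with compounds perfused in external solution containing 0.1-0.01% DMSO. IC50 values (μM) above 10 μM are reported as 10 μM.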

[2] = biological target: T2, human α1G T-type channels (Homo sapiens, UniProt O43497); assay: T-type calcium channel block, whole cell patch clamp (α1G); type: cell-based; settings: HEK cells stably expressing human α1G; mainly non-inactivated protocol; values above 10 μM represented as 10 μM, values below 0.30 μM represented as 0.30 μM
T2 construct: expressed in transfected cells; host or cells: HEK 293
Outline: as §1

T2 sequence (O43497 whole entry): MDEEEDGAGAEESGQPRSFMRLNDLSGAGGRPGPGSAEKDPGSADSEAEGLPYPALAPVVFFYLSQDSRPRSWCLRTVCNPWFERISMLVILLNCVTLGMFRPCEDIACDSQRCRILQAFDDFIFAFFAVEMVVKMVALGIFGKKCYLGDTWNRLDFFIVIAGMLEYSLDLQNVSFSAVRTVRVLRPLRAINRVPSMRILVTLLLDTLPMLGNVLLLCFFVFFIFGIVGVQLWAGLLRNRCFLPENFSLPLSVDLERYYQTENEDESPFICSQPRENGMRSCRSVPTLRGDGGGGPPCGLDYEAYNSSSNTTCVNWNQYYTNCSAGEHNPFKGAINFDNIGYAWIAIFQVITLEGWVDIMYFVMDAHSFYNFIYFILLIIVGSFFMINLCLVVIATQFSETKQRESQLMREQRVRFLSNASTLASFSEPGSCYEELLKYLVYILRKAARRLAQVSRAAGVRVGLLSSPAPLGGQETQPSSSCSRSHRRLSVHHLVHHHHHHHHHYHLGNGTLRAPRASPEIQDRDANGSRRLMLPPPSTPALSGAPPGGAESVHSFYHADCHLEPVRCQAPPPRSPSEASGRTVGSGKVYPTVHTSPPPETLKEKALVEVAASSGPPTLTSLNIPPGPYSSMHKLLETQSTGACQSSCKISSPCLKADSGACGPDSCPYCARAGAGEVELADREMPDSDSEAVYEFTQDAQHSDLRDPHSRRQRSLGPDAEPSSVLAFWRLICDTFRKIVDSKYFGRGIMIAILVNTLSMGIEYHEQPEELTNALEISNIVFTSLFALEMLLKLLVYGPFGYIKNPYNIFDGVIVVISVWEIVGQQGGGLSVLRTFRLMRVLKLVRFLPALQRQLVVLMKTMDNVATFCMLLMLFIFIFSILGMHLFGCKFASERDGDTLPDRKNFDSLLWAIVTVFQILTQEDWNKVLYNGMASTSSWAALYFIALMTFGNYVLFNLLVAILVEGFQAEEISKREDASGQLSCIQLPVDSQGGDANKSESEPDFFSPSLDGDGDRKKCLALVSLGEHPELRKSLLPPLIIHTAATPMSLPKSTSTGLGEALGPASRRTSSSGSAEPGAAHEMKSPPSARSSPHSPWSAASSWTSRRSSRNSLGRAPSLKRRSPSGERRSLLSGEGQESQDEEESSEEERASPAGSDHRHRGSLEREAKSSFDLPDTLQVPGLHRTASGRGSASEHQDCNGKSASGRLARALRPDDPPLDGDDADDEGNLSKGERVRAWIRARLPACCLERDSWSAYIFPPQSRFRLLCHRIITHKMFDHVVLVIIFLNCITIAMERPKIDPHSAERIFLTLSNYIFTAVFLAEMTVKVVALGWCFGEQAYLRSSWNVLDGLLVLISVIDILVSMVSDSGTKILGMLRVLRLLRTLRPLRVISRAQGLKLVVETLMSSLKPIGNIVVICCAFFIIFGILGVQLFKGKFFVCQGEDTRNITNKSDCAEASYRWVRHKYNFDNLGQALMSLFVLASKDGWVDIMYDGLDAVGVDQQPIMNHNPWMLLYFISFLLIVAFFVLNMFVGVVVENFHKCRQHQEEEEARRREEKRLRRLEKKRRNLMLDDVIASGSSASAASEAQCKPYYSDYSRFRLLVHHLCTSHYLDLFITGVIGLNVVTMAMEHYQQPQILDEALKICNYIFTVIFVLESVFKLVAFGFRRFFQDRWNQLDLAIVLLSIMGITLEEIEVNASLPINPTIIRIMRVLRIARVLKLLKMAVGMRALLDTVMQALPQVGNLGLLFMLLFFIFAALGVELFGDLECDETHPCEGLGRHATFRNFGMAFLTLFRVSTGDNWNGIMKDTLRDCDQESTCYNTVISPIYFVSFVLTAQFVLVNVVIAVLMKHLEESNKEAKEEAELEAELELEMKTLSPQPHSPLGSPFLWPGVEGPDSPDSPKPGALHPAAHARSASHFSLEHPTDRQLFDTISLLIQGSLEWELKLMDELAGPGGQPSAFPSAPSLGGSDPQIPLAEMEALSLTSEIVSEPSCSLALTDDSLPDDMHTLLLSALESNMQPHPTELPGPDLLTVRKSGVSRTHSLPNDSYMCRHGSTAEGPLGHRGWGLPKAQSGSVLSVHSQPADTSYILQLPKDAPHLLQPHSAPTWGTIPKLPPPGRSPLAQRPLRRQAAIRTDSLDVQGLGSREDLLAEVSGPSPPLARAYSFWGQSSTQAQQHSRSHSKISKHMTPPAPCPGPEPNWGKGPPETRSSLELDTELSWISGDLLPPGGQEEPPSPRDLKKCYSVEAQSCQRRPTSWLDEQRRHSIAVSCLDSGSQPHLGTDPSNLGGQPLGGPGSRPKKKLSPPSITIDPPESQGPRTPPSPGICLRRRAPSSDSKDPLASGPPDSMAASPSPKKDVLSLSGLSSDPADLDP
T1 sequence (O95180 whole entry): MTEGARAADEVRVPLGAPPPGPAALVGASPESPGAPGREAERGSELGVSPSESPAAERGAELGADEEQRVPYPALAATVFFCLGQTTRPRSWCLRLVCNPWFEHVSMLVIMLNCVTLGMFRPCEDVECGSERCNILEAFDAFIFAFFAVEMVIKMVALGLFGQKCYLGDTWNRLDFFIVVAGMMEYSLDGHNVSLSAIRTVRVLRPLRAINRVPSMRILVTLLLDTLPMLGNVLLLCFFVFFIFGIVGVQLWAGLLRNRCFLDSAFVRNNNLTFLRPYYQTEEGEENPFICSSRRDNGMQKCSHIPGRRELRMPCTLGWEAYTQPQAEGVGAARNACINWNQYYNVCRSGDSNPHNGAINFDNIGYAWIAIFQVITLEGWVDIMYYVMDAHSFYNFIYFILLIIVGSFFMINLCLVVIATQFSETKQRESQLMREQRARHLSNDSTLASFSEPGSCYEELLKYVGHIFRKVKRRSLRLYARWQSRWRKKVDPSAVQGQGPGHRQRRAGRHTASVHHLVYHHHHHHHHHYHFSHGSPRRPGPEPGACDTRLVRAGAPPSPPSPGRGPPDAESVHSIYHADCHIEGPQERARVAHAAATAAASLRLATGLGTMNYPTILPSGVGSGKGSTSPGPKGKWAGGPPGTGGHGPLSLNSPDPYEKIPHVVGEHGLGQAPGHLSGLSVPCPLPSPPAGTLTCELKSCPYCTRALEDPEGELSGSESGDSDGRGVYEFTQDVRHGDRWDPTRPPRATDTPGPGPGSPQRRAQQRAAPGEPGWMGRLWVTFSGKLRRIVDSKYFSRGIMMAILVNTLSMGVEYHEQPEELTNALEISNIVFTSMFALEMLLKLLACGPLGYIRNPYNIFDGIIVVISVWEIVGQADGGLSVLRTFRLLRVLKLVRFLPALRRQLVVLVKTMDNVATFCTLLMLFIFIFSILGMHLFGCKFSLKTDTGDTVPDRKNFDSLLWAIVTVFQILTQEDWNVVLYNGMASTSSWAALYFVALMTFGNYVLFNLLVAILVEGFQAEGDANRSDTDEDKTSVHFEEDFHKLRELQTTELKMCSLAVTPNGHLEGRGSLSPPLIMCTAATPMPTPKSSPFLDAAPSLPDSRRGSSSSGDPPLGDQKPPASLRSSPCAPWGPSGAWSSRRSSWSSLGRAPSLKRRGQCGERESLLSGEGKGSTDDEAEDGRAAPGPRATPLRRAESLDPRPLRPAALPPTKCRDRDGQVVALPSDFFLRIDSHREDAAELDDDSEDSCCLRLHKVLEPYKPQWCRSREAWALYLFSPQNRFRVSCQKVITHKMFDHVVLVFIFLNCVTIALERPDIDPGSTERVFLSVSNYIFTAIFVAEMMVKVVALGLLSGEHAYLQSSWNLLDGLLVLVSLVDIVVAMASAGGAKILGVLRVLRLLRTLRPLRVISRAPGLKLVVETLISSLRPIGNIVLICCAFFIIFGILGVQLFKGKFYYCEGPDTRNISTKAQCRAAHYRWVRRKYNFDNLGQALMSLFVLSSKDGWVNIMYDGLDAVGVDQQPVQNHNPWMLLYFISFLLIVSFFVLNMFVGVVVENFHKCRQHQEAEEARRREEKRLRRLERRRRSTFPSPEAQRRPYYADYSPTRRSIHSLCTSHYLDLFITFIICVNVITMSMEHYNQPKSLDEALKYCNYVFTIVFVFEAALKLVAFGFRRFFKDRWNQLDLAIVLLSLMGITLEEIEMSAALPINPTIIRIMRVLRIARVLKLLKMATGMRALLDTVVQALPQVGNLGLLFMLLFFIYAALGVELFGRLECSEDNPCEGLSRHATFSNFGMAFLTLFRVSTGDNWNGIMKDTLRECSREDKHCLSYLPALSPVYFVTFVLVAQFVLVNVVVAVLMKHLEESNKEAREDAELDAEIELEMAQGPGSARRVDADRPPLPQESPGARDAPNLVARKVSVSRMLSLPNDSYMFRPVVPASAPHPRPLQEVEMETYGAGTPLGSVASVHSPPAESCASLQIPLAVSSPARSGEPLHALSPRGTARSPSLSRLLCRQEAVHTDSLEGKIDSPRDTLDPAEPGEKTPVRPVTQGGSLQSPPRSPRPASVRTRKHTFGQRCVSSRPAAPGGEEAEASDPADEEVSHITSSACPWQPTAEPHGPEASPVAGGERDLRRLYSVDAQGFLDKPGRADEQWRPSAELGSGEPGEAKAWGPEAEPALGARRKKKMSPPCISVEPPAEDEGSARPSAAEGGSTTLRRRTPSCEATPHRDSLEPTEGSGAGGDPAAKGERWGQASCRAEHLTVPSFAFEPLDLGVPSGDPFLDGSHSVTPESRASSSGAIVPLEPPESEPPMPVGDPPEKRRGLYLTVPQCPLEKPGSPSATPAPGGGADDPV

SMILES | IC50 [1] [µM] | IC50 [2] [µM]
O=C(CCC(F)(F)F)NCCN[C@H]1CC[C@H](CNC(=O)c2cc(C(F)(F)F)cc(C(F)(F)F)c2)CC1 [Compound 102, N-((trans-4-(2-(4,4,4-trifluorobutanamido)ethylamino)cyclohexyl)methyl)-3,5-bis(trifluoromethyl)benzamide] | 1.81 | 0.97
CC(C)(C)OC(=O)N[C@H]1CC[C@@H](CC(=O)Nc2cc(C(F)(F)F)cc(C(F)(F)F)c2)CC1 [Compound 105, tert-butyl cis-4-(2-(3,5-bis(trifluoromethyl)phenylamino)-2-oxoethyl)cyclohexylcarbamate] | 6.07 | 0.65
O=C(C[C@H]1CC[C@@H](NC(=O)[C@@H]2C[C@@H](c3ccccc3)CN2)CC1)NCc1cccc(OC(F)(F)F)c1 [Compound 116, (2S,4S)-N-(cis-4-(2-oxo-2-(3-(trifluoromethoxy)benzylamino)ethyl)cyclohexyl)-4-phenylpyrrolidine-2-carboxamide] | ≥ 10 | 2.89
NC1(C(=O)N[C@H]2CC[C@H](CC(=O)Nc3cc(C(F)(F)F)cc(C(F)(F)F)c3)CC2)CCCCC1 [Compound 117, 1-amino-N-(trans-4-(2-(3,5-bis(trifluoromethyl)phenylamino)-2-oxoethyl)cyclohexyl)cyclohexanecarboxamide] | ≥ 10 | 1.07
O=C(C[C@H]1CC[C@H](NC(=O)[C@@H]2CCCN2)CC1)Nc1cc(C(F)(F)F)cc(C(F)(F)F)c1 [Compound 119, (S)-N-(trans-4-(2-(3,5-bis(trifluoromethyl)phenylamino)-2-oxoethyl)cyclohexyl)pyrrolidine-2-carboxamide] | 1.53 | 0.88
O=C(C[C@H]1CC[C@H](NC(=O)C2(c3ccccc3)CCNCC2)CC1)Nc1cc(C(F)(F)F)cc(C(F)(F)F)c1 [Compound 121, (S)-N-(trans-4-(2-(3,5-bis(trifluoromethyl)phenylamino)-2-oxoethyl)cyclohexyl)-4-phenylpiperidine-4-carboxamide] | ≥ 10 | 0.61
N[C@H]1CCCC[C@H]1C(=O)N[C@H]1CC[C@H](CC(=O)Nc2cc(C(F)(F)F)cc(C(F)(F)F)c2)CC1 [Compound 122, (1R,2S)-2-amino-N-(trans-4-(2-(3,5-bis(trifluoromethyl)phenylamino)-2-oxoethyl)cyclohexyl)cyclohexanecarboxamide] | 3.62 | 0.84
O=C(C[C@H]1CC[C@H](NC(=O)[C@@H]2C[C@@H](c3ccccc3)CN2)CC1)Nc1cc(C(F)(F)F)cc(C(F)(F)F)c1 [Compound 123, (2S,4S)-N-(trans-4-(2-(3,5-bis(trifluoromethyl)phenylamino)-2-oxoethyl)cyclohexyl)-4-phenylpyrrolidine-2-carboxamide] | 2.95 | ≤ 0.3
NC1(C(=O)N[C@H]2CC[C@H](CC(=O)Nc3cc(C(F)(F)F)cc(C(F)(F)F)c3)CC2)CCCC1 [Compound 124, 1-amino-N-(trans-4-(2-(3,5-bis(trifluoromethyl)phenylamino)-2-oxoethyl)cyclohexyl)cyclopentanecarboxamide] | ≥ 10 | 0.83
O=C(NC[C@H]1CC[C@@H](NC(=O)[C@@H]2C[C@@H](c3ccccc3)CN2)CC1)c1cc(C(F)(F)F)cc(C(F)(F)F)c1 [Compound 125, (2S,4S)-N-(cis-4-((3,5-bis(trifluoromethyl)benzamido)methyl)cyclohexyl)-4-phenylpyrrolidine-2-carboxamide] | 2.43 | 0.94
O=C(NC[C@H]1CC[C@@H](NC(=O)[C@@H]2CC[C@H](c3ccccc3)N2)CC1)c1cc(C(F)(F)F)cc(C(F)(F)F)c1 [Compound 127, (2S,5R)-N-(cis-4-((3,5-bis(trifluoromethyl)benzamido)methyl)cyclohexyl)-5-phenylpyrrolidine-2-carboxamide] | 4.93 | 1.1
Cc1ccc(-c2csc(NC(=O)C[C@H]3CC[C@@H](NC(=O)C4(c5ccccc5)CCNCC4)CC3)n2)cc1 [Compound 132, N-(cis-4-(2-oxo-2-(4-p-tolylthiazol-2-ylamino)ethyl)cyclohexyl)-4-phenylpiperidine-4-carboxamide] | ≥ 10 | 1.09
O=C(NC[C@H]1CC[C@H](NC(=O)[C@@H]2CC[C@H](c3ccccc3)N2)CC1)c1cc(C(F)(F)F)cc(C(F)(F)F)c1 [Compound 135, (2S,5R)-N-(trans-4-((3,5-bis(trifluoromethyl)benzamido)methyl)cyclohexyl)-5-phenylpyrrolidine-2-carboxamide] | 5.65 | 1.11
O=C(NC[C@H]1CC[C@H](NC(=O)[C@H]2CC[C@@H](c3ccccc3)N2)CC1)c1cc(C(F)(F)F)cc(C(F)(F)F)c1 [Compound 137, (2R,5S)-N-(trans-4-((3,5-bis(trifluoromethyl)benzamido)methyl)cyclohexyl)-5-phenylpyrrolidine-2-carboxamide] | 7.85 | 0.7
O=C(NC[C@H]1CC[C@@H](NC(=O)[C@H]2CC[C@@H](c3ccccc3)N2)CC1)c1cc(C(F)(F)F)cc(C(F)(F)F)c1 [Compound 139, (2R,5S)-N-(cis-4-((3,5-bis(trifluoromethyl)benzamido)methyl)cyclohexyl)-5-phenylpyrrolidine-2-carboxamide] | 7.06 | 1.07
O=C(C[C@H]1CC[C@@H](NC(=O)[C@@H]2CCCN2)CC1)Nc1cc(C(F)(F)F)cc(C(F)(F)F)c1 [Compound 143, (S)-N-(cis-4-(2-(3,5-bis(trifluoromethyl)phenylamino)-2-oxoethyl)cyclohexyl)pyrrolidine-2-carboxamide] | 9.94 | 1.9
O=C(C[C@H]1CC[C@@H](NC(=O)[C@H]2CCCN2)CC1)Nc1cc(C(F)(F)F)cc(C(F)(F)F)c1 [Compound 146, (R)-N-(cis-4-(2-(3,5-bis(trifluoromethyl)phenylamino)-2-oxoethyl)cyclohexyl)pyrrolidine-2-carboxamide] | 7.87 | 2.79
CC(C)(C)C(O)CN[C@H]1CC[C@@H](CC(=O)Nc2cc(C(F)(F)F)cc(C(F)(F)F)c2)CC1 (stereo partly drawn) [Compound 150, N-(3,5-bis(trifluoromethyl)phenyl)-2-(cis-4-(2-hydroxy-3,3-dimethylbutylamino)cyclohexyl)acetamide] | 0.524 | ≤ 0.3
Cc1ccc(-c2csc(NC(=O)C[C@H]3CC[C@H](NCC(O)(C(F)(F)F)C(F)(F)F)CC3)n2)cc1 [Compound 151, N-(4-p-tolylthiazol-2-yl)-2-(trans-4-(3,3,3-trifluoro-2-hydroxy-2-(trifluoromethyl)propylamino)cyclohexyl)acetamide] | ≥ 10 | 0.48
Cc1ccc(-c2csc(NC(=O)C[C@H]3CC[C@@H](NCC(O)(C(F)(F)F)C(F)(F)F)CC3)n2)cc1 [Compound 152, N-(4-p-tolylthiazol-2-yl)-2-(cis-4-(3,3,3-trifluoro-2-hydroxy-2-(trifluoromethyl)propylamino)cyclohexyl)acetamide] | ≥ 10 | ≤ 0.3
CC(C)(C)C1CN([C@H]2CC[C@H](CNC(=O)c3cc(C(F)(F)F)cc(C(F)(F)F)c3)CC2)C(=O)O1 (stereo partly drawn) [Compound 153, N-((trans-4-(5-tert-butyl-2-oxooxazolidin-3-yl)cyclohexyl)methyl)-3,5-bis(trifluoromethyl)benzamide] | 4.01 | 1.18
CC(C)(C)NC(=O)CN[C@H]1CC[C@@H](CNC(=O)c2cccc(Cl)c2)CC1 [Compound 179, N-(((1s,4s)-4-(2-(tert-butylamino)-2-oxoethylamino)cyclohexyl)methyl)-3-chlorobenzamide] | 1.32 | 2.92
COc1cc(OC)cc(C(=O)NC[C@H]2CC[C@@H](NCC(=O)NC(C)(C)C)CC2)c1 [Compound 181, N-(((1s,4s)-4-(2-(tert-butylamino)-2-oxoethylamino)cyclohexyl)methyl)-3,5-dimethoxybenzamide] | 0.33 | 3.65
CC(C)(C)NC(=O)CN[C@H]1CC[C@@H](CNC(=O)c2cccc(C(F)(F)F)c2)CC1 [Compound 182, N-(((1s,4s)-4-(2-(tert-butylamino)-2-oxoethylamino)cyclohexyl)methyl)-3-(trifluoromethyl)benzamide] | 3.42 | 2.37
CC(C)(C)NC(=O)CN[C@H]1CC[C@@H](CNC(=O)c2cccc(Br)c2)CC1 [Compound 183, 3-bromo-N-(((1s,4s)-4-(2-(tert-butylamino)-2-oxoethylamino)cyclohexyl)methyl)benzamide] | 0.82 | 2.24
CC(C)(C)NC(=O)CN[C@H]1CC[C@@H](CNC(=O)c2cccc(OC(F)(F)F)c2)CC1 [Compound 185, N-(((1s,4s)-4-(2-(tert-butylamino)-2-oxoethylamino)cyclohexyl)methyl)-3-(trifluoromethoxy)benzamide] | 0.33 | 0.79
CC(C)(C)NC(=O)CN[C@H]1CC[C@@H](CNC(=O)c2cc(F)cc(Cl)c2)CC1 [Compound 186, N-(((1s,4s)-4-(2-(tert-butylamino)-2-oxoethylamino)cyclohexyl)methyl)-3-chloro-5-fluorobenzamide] | 0.26 | 1.18
CC(C)(C)NC(=O)CN[C@H]1CC[C@@H](CNC(=O)c2cc(Cl)cc(Cl)c2)CC1 [Compound 187, N-(((1s,4s)-4-(2-(tert-butylamino)-2-oxoethylamino)cyclohexyl)methyl)-3,5-dichlorobenzamide] | 0.06 | ≤ 0.3
Cc1cc(F)cc(C(=O)NC[C@H]2CC[C@@H](NCC(=O)NC(C)(C)C)CC2)c1 [Compound 188, N-(((1s,4s)-4-(2-(tert-butylamino)-2-oxoethylamino)cyclohexyl)methyl)-3-fluoro-5-methylbenzamide] | 1.23 | 4.28

— patent US20090298834A1, “4-(AMINOMETHYL)CYCLOHEXANAMINE DERIVATIVES AS CALCIUM CHANNEL BLOCKERS” (priority 2008, published 2009)
